This is an account of results in US12454525B2, “IL4I1 inhibitors and methods of use” (Merck Sharp & Dohme LLC, priority 2020, dated 2025).

This experiment addresses T1, recombinant IL4I1 (Homo sapiens, UniProt Q96RQ9).
T1 construct: purchased R&D Systems 5684-AO-020
T1 sequence (Q96RQ9 22-567): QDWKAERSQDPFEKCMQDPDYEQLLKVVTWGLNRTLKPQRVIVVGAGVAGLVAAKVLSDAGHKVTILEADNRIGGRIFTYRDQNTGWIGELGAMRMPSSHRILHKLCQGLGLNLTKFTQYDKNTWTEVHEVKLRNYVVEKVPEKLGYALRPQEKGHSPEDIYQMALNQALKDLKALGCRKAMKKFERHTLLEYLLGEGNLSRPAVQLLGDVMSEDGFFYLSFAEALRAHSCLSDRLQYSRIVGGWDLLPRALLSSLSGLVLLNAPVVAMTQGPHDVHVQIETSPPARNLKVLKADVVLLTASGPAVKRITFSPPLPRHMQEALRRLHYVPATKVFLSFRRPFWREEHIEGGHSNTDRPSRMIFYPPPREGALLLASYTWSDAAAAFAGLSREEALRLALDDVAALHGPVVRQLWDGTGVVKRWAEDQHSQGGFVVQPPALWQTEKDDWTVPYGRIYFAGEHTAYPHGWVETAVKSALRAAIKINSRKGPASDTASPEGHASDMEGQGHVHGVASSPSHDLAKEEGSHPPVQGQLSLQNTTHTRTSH
Nature of the experiment: IL4I1 Enzymatic Assay (Amplex Red/HRP coupled H2O2 detection). It counts as biochemical. The conditions noted are these: 240 min; four-hour pre-incubation with compound; 1 nM IL4I1, 1 mM each Phe/Tyr/Trp; ten-point titration; fluorescence readout; read-out: Potency EC50 (nM) (240 min). The gist of the method:
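Recombinant IL4I1 at 1 nM final, pre-incubated 4 h with compound (0.1% DMSO) at ambient temperature in 50 mM Hepes pH 7.0, 0.005% Tween20; 1 mM each Phe/Tyr/Trp, 120 min, H2O2 read via Amplex Red/HRP fluorescence (544/590 nm). EC50 from ten-point four-parameter fit.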
For the compound `O=C(NCC(F)(F)F)c1cccc(Cn2c(=O)[nH]c3ccccc32)c1` [Example 101, 3-((2-oxo-2,3-dihydro-1H-benzo[d]imidazol-1-yl)methyl)-N-(2,2,2-trifluoroethyl)benzamide], the EC50 is 90 nM.

Regarding `O=C(c1cccc(Cn2c(=O)[nH]c3ccccc32)c1)N1CCC1` [Example 102, 1-(3-(azetidine-1-carbonyl)benzyl)-1,3-dihydro-2H-benzo[d]imidazol-2-one], the EC50 was found to be 8 nM.

For `O=C(Cc1cccc(Cn2c(=O)[nH]c3ccccc32)c1)Nc1cccnc1` [Example 103, 2-(3-((2-oxo-2,3-dihydro-1H-benzo[d]imidazol-1-yl)methyl)phenyl)-N-(pyridin-3-yl)acetamide], the EC50 is 4 nM.

Regarding `N#Cc1cccc(NC(=O)Cc2cccc(Cn3c(=O)[nH]c4ccccc43)c2)c1` [Example 104, N-(3-cyanophenyl)-2-(3-((2-oxo-2,3-dihydro-1H-benzo[d]imidazol-1-yl)methyl)phenyl)acetamide], the EC50 is 5 nM.

On to `CN(C)C(=O)Cc1cccc(Cn2c(=O)[nH]c3ccccc32)c1` [Example 105, N,N-dimethyl-2-(3-((2-oxo-2,3-dihydro-1H-benzo[d]imidazol-1-yl)methyl)phenyl)acetamide], for which the EC50 was determined as 10 nM.

For `O=C(Cc1ccc(Cn2c(=O)[nH]c3ccccc32)cc1)NC1CCC(F)C1` (centres unmarked) [Example 106, N-(3-fluorocyclopentyl)-2-(4-((2-oxo-2,3-dihydro-1H-benzo[d]imidazol-1-yl)methyl)phenyl)acetamide], the EC50 was found to be 38 nM.

Turning to `CNC(=O)Cc1ccc(Cn2c(=O)[nH]c3ccccc32)cc1` [Example 107, N-methyl-2-(4-((2-oxo-2,3-dihydro-1H-benzo[d]imidazol-1-yl)methyl)phenyl)acetamide], the 50% effective concentration (EC50) is 5 nM.

Consider `O=C(Cc1ccc(Cn2c(=O)[nH]c3ccccc32)cc1)N1CCC(F)C1` (centres unmarked) [Example 108, 1-(4-(2-(3-fluoropyrrolidin-1-yl)-2-oxoethyl)benzyl)-1,3-dihydro-2H-benzo[d]imidazol-2-one], for which the EC50 came out at 8 nM.

Consider `CCc1ccc2c(c1)[nH]c(=O)n2Cc1ccccc1` [Example 109, 1-benzyl-5-ethyl-1,3-dihydro-2H-benzo[d]imidazol-2-one], for which the EC50 stood at 4940 nM.

`O=c1[nH]c2cccc(F)c2n1Cc1ccccc1` [Example 110, 1-benzyl-7-fluoro-1,3-dihydro-2H-benzimidazol-2-one]: the EC50 was determined as 9160 nM.

As for `O=c1[nH]c2sccc2n1Cc1ccccc1` [Example 112, 1-benzyl-1,3-dihydro-2H-thieno[2,3-d]imidazol-2-one], the EC50 is 1320 nM.

As for `O=c1[nH]c2ccsc2n1Cc1ccccc1` [Example 113, 3-benzyl-1,3-dihydro-2H-thieno[2,3-d]imidazol-2-one], the 50% effective concentration (EC50) turned out to be 2850 nM.

Regarding `O=c1[nH]c2ccccc2n1CCCCc1cccc2cccnc12` [Example 114, 1-(4-(quinolin-8-yl)butyl)-1,3-dihydro-2H-benzo[d]imidazol-2-one], the EC50 stood at 107 nM.

Regarding `O=c1[nH]c2ccccc2n1CC1CCN(c2ccccn2)CC1` [Example 115, 1-((1-(pyridin-2-yl)piperidin-4-yl)methyl)-1,3-dihydro-2H-benzo[d]imidazol-2-one], the EC50 is 1300 nM.

As a reminder, the EC50 is the concentration at which the effect is half-maximal.
